Consider 30 molecules from patent publication EP2582674B1 (Cymabay Therapeutics, Inc., priority 2010, dated 2011).

The target of one assay is T1, human GPR120 (Homo sapiens, UniProt Q5NUL3).
T1 construct: host or cells: HEK293 cells co-expressing Gqi5
T1 sequence (Q5NUL3 1-361): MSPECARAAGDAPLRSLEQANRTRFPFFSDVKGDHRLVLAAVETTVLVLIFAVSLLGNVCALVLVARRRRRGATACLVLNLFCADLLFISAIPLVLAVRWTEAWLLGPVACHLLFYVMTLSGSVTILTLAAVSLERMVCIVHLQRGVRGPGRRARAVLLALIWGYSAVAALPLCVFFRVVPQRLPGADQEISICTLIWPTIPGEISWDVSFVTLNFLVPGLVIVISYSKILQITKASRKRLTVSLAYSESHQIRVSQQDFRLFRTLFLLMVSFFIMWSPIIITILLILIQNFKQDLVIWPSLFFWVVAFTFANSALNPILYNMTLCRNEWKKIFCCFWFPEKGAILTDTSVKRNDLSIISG
The experiment in a line: Intracellular Ca2+ assay in human GPR120 stable cell line (FLIPR Calcium 4 dye, Flexstation). The class given is cell-based. Conditions: % activity at 2.5 µM compared to the maximal activity of the compound of Example 25 at 2.5 µM (=100%); HEK293 cells co-expressing Gqi5.
Regarding “2-(4-((5-fluoro-3H-spiro[benzofuran-2,1'-cyclopentane]-7-yl)methoxy)phenyl)cyclopropanecarboxylic acid [Example 165]”, the “% Activity (Ex. 25 Reference Compound)” value came to 158.08%.
Regarding `CC1(C)Cc2cc(F)cc(COc3c(F)cc(CC4CC4C(=O)O)cc3F)c2O1` (single isomer, unassigned) [Example 184A, 2-(3,5-difluoro-4-((5-fluoro-2,2-dimethyl-2,3-dihydrobenzofuran-7-yl)methoxy)benzyl)cyclopropanecarboxylic acid], the “% Activity (Ex. 25 Reference Compound)” value stood at 95.58%.

Staying with this assay, now noted: HEK293, % activity at 2.5 µM compared to the maximal activity of the compound of Example 25 at 2.5 µM (=100%); HEK293 cells co-expressing Gqi5; read-out: % Activity (Ex. 25 Reference Compound).
Consider `[2H]C([2H])(Oc1ccc(CCC(=O)O)c(CC)c1F)c1cc(F)cc2c1OC(C)(C)C2` [Example 228, 3-(4-(dideuterio(5-fluoro-2,2-dimethyl-2,3-dihydrobenzofuran-7-yl)methoxy)-3-fluoro-2-ethylphenyl)propanoic acid], for which the activity at 2.5 µM amounted to 119%.
With `Cc1cc2cccc(COc3ccc4c(c3)CCC4CC(=O)O)c2s1` (stereo not drawn) [Example 152, 2-(5-((2-methylbenzo[b]thiophen-7-yl)methoxy)-2,3-dihydro-1H-inden-1-yl)acetic acid], the activity at 2.5 µM came out at 83.8%.
Still for that read-out and setting: in the case of `CC(Cc1ccc(NCc2cc(F)cc3c2OC(C)(C)C3)cc1)C(=O)O` (stereo not drawn) [Example 67, 3-(4-(((5-fluoro-2,2-dimethyl-2,3-dihydrobenzofuran-7-yl)methyl)amino)phenyl)-2-methylpropanoic acid] it was 142%; in that of `[2H]C([2H])(C(=O)O)C([2H])([2H])c1ccc(OCc2cc(Cl)cc3c2OC(C)(C)C3)c(F)c1` [Example 241, 3-(4-((5-chloro-2,2-dimethyl-2,3-dihydrobenzofuran-7-yl)methoxy)-3-fluorophenyl)-2,2,3,3-tetradeuteriopropanoic acid], 160%; in that of `[2H]C1([2H])c2cc(F)cc(COc3ccc(CC(C)C(=O)O)cc3)c2OC1(C)C` (stereo not drawn) [Example 145, 3-(4-((3,3-dideuterio-5-fluoro-2,2-dimethyl-2,3-dihydrobenzofuran-7-yl)methoxy)phenyl)-2-methylpropanoic acid], 144%.
Same read-out and setting: in the case of `CC(Cc1ccc(OCc2cc(Cl)cc3c2OC(C)(C)C3=O)c(C(F)(F)F)c1)C(=O)O` (stereo not drawn) [Example 79, 3-(4-((5-chloro-2,2-dimethyl-3-oxo-2,3-dihydrobenzofuran-7-yl)methoxy)-3-(trifluoromethyl)phenyl)-2-methylpropanoic acid] it was 3.85%.
On the same count and under the same terms, in the case of `CC1(C)Cc2cc(F)cc(COc3ccc4cc(C(=O)O)ccc4c3)c2O1` [Example 114, 6-((5-fluoro-2,2-dimethyl-2,3-dihydrobenzofuran-7-yl)methoxy)-2-naphthoic acid] it was 124%.
With `CC(C)Oc1ncccc1COc1ccc2c(c1)CCC2CC(=O)O` (stereo not drawn) [Example 259, 2-(5-((2-isopropoxypyridin-3-yl)methoxy)-2,3-dihydro-1H-inden-1-yl)acetic acid], the activity at 2.5 µM stood at 118%.
For the molecule `[2H]C1([2H])c2cc(Cl)cc(COc3ccc(CC(C)C(=O)O)cc3F)c2OC1(C)C` (stereo not drawn) [Example 146, 3-(4-((3,3-dideuterio-5-chloro-2,2-dimethyl-2,3-dihydrobenzofuran-7-yl)methoxy)-3-fluorophenyl)-2-methylpropanoic acid], the activity at 2.5 µM was 141%.
The same measure, in the same setting: in the case of `CC1(C)Cc2cc(Cl)cc(COc3ccc(SCC(=O)O)cc3)c2O1` [Example 59, 2-((4-((5-chloro-2,2-dimethyl-2,3-dihydrobenzofuran-7-yl)methoxy)phenyl)thio)-acetic acid] it was 118%; in that of `Cc1cc(OCc2cc(F)cc3c2OC(C)(C)C3)ccc1CCC(=O)O` [Example 46, 3-(4-((5-fluoro-2,2-dimethyl-2,3-dihydrobenzofuran-7-yl)methoxy)-2-methylphenyl)propanoic acid], 114%; in that of `CC1(C)Cc2cc(F)cc(COc3ccc4c(c3)CC[C@H]4CC(=O)O)c2O1` [Example 175, (S)-2-(5-((5-fluoro-2,2-dimethyl-2,3-dihydrobenzofuran-7-yl)methoxy)-2,3-dihydro-1H-inden-1-yl)acetic acid], 152%.
As for `Cc1cc(OCc2cc(F)cc3c2OC(C)(C)C3)c(F)cc1CCC(=O)O` [Example 214, 3-(5-fluoro-4-((5-fluoro-2,2-dimethyl-2,3-dihydrobenzofuran-7-yl)methoxy)-2-methylphenyl)propanoic acid], the activity at 2.5 µM stood at 143%.
Take `CC1(C)Cc2cc(F)cc(COc3ccc(CCC(=O)O)c4c3CCC4)c2O1` [Example 63, 3-(7-((5-fluoro-2,2-dimethyl-2,3-dihydrobenzofuran-7-yl)methoxy)-2,3-dihydro-1H-inden-4-yl)propanoic acid]: the activity at 2.5 µM is 95%.
The same measure, in the same setting: in the case of `CCN(CC)c1cc(COc2ccc(CC(C)C(=O)O)cc2)c2c(c1)CC(C)(C)O2` (stereo not drawn) [Example 89, 3-(4-((5-(diethylamino)-2,2-dimethyl-2,3-dihydrobenzofuran-7-yl)methoxy)phenyl)-2-methylpropanoic acid] it was 82.3%; in that of `[2H]C([2H])(C(=O)O)C([2H])([2H])c1ccc(OCc2cc(F)cc3c2OC(C)(C)C3)c(F)c1CC` [Example 243, 3-(2-ethyl-3-fluoro-4-((5-fluoro-2,2-dimethyl-2,3-dihydrobenzofuran-7-yl)methoxy)phenyl)-2,2,3,3-tetradeuteriopropanoic acid], 155%; in that of `Cc1cc2cc(Cl)cc(COc3ccc(CC(C)C(=O)O)cc3F)c2o1` (stereo not drawn) [Example 120, 3-(4-((5-chloro-2-methylbenzofuran-7-yl)methoxy)-3-fluorophenyl)-2-methylpropanoic acid], 104%.
With `CC(Cc1ccc(OCc2cc(-c3ccc(Cl)cc3)cc3c2OC(C)(C)C3)cc1)C(=O)O` (stereo not drawn) [Example 82, 3-(4-((5-(4-chlorophenyl)-2,2-dimethyl-2,3-dihydrobenzofuran-7-yl)methoxy)phenyl)-2-methylpropanoic acid], the activity at 2.5 µM was determined as 24%.
Take `CC1(C)Cc2cc(Cl)cc(COc3ccc4c(c3)CC[C@@H]4CC(=O)O)c2O1` [Example 179, (R)-2-(5-((5-chloro-2,2-dimethyl-2,3-dihydrobenzofuran-7-yl)methoxy)-2,3-dihydro-1H-inden-1-yl)acetic acid]: the activity at 2.5 µM came to 105%.
The same measure, in the same setting: the result for `CC(Cc1cccc(OCc2cc(Cl)cc3c2OC(C)(C)C3)c1)C(=O)O` (stereo not drawn) [Example 251, 3-(3-((5-chloro-2,2-dimethyl-2,3-dihydrobenzofuran-7-yl)methoxy)phenyl)-2-methylpropanoic acid] reads 61.1%.

The same assay, now with this note: HEK293, % activity at 5 µM compared to the maximal activity of GW9508 at 6.7 µM (=100%); HEK293 cells co-expressing Gqi5; read-out: %Activity (GW9508 Reference Compound).
With `CC(Cc1ccc(OCc2ccc(C(F)(F)F)c3c2OC(C)(C)C3)cc1)C(=O)O` (stereo not drawn) [Example 34, 3-(4-((2,2-dimethyl-4-(trifluoromethyl)-2,3-dihydrobenzofuran-7-yl)methoxy)phenyl)-2-methylpropanoic acid], the activity at 5 µM worked out at 118%.
Take `Cc1cc(COc2ccc(CC(C)C(=O)O)cc2)c2c(c1)CC(C)(C)O2` (stereo not drawn) [Example 4, 2-methyl-3-(4-((2,2,5-trimethyl-2,3-dihydrobenzofuran-7-yl)methoxy)phenyl)propanoic acid]: the activity at 5 µM was found to be 111%.
Take `CC1(C)Cc2c(C(F)(F)F)ccc(COc3c(F)cc(C4CC4C(=O)O)cc3F)c2O1` (stereo not drawn) [Example 31, 2-(4-((2,2-dimethyl-4-(trifluoromethyl)-2,3-dihydrobenzofuran-7-yl)methoxy)-3,5-difluorophenyl)cyclopropanecarboxylic acid]: the activity at 5 µM stood at 150%.
With `CC(Cc1cc(F)c(OCc2cccc3c2OCC3)c(F)c1)C(=O)O` (stereo not drawn) [Example 3, 3-(4-((2,3-dihydrobenzofuran-7-yl)methoxy)-3,5-difluorophenyl)-2-methylpropanoic acid], the activity at 5 µM was 124%.
On the same count and under the same terms, in the case of `CC(Cc1ccc(OCc2ccc(C(F)(F)F)c3c2OC(C)(C)C3)c(F)c1)C(=O)O` (stereo not drawn) [Example 33, 3-(4-((2,2-dimethyl-4-(trifluoromethyl)-2,3-dihydrobenzofuran-7-yl)methoxy)-3-fluorophenyl)-2-methylpropanoic acid] it was 143%.
On the same count and under the same terms, in the case of `CC(Cc1ccc(OCc2ccc(F)c3c2OC(C)(C)C3)cc1)C(=O)O` (stereo not drawn) [Example 30, 3-(4-((4-fluoro-2,2-dimethyl-2,3-dihydrobenzofuran-7-yl)methoxy)phenyl)-2-methylpropanoic acid] it was 177%; in that of `CC(Cc1cc(F)c(OCc2cccc3c2OC(C)(C)CC3)c(F)c1)C(=O)O` (stereo not drawn) [Example 2, 3-(4-((2,2-dimethylchroman-8-yl)methoxy)-3,5-difluorophenyl)-2-methylpropanoic acid], 135%.

The same assay, now with this note: eight concentrations from 0.00001 to 20 µM; changes (Max-Min) of fluorescence intensity.
What is called EC50 is the midpoint of the concentration-response curve. On to `CC(CCc1ccc(OCc2cc(Cl)cc3c2OC(C)(C)C3)cc1)C(=O)O` (stereo not drawn) [Example 172, 4-(4-((5-chloro-2,2-dimethyl-2,3-dihydrobenzofuran-7-yl)methoxy)phenyl)-2-methylbutanoic acid], for which the EC50 is at most 1 µM.
The same measure, in the same setting: in the case of `CC(Cc1ccc(OCc2ccc(C(F)(F)F)c3c2OC(C)(C)C3)cc1)C(=O)O` (stereo not drawn) [Example 34, 3-(4-((2,2-dimethyl-4-(trifluoromethyl)-2,3-dihydrobenzofuran-7-yl)methoxy)phenyl)-2-methylpropanoic acid] it was above 10 µM; in that of `CC(Cc1ccc(OCc2cc(-c3ccc(Cl)cc3)cc3c2OC(C)(C)C3)cc1)C(=O)O` (stereo not drawn) [Example 82, 3-(4-((5-(4-chlorophenyl)-2,2-dimethyl-2,3-dihydrobenzofuran-7-yl)methoxy)phenyl)-2-methylpropanoic acid], 1 to 10 µM.
The same measure, in the same setting: in the case of `CC(Cc1cccc(OCc2cc(Cl)cc3c2OC(C)(C)C3)c1)C(=O)O` (stereo not drawn) [Example 251, 3-(3-((5-chloro-2,2-dimethyl-2,3-dihydrobenzofuran-7-yl)methoxy)phenyl)-2-methylpropanoic acid] it was 1 to 10 µM.
